Test results from patent US11034728B2, “Peptides for binding epidermal growth factor” (3M INNOVATIVE PROPERTIES COMPANY, priority 2016, dated 2021).
Ends that are not written are not given here.

Legend:
EGF [1] = target: T1, EGF (Homo sapiens, UniProt P01133); assay: biochemical; conditions: binding affinity (KD) for EGF, linker modified peptide immobilized on CM5 chip, Biacore 3000, 25° C., HBS-EP, EGF 62.5-1000 nM, 1-to-1 Langmuir fit
Procedure: “Test Method A” refers to the following general surface plasmon resonance (SPR) binding assay. Target protein (e.g., EGF and TNF-□) is immobilized at 25° C. and diluted peptides are injected for 3 min at a flow rate of 10 μl/min at 25° C. Binding assay is performed according to detailed Test method A in Examples.
The following Test Method A was used for determining the binding affinity (KD) of SEQ ID NO: 1 for EGF and TNF-□□ Binding experiments were performed using Biacore 3000 optical biosensors equipped with research-grade CM5 sensor chips (GE Healthcare Bio-Sciences Corporation). The reagents used for the amine-coupling steps [(1-ethyl-3-(3-dimethylaminopropyl)-carbodiimide (EDC); N-hydroxysuccinimide (NHS); and ethanolamine hydrochloride-NaOH (1 M, pH 8.5)] were obtained from GE Healthcare Bio-Sciences Corporation. In order to efficiently immobilize the peptide on the sensor chips, a modified version of SEQ ID NO:1 was prepared by SPPS in which a “CK” amino acid linker sequence was added to the N-terminal end of the SEQ ID NO: 1 peptide (i.e. linker modified version of SEQ ID NO: 1 for immobilization being [sequence]). A standard coupling protocol was employed to immobilize the linker modified version of SEQ ID NO: 1 via the lysine residues. The immobilization was performed at 25° C. using HBS-EP as the running buffer. […]

EGF [2] = target: T1, EGF; assay: Dot blotting analysis, EGF spotted on membrane, probed with biotinylated peptide and Streptavidin-HRP; format: binding; design: Recombinant Human Epidermal Growth Factor (EGF); purchased Abcam plc, Cambridge, Mass; conditions: EGF 10 nM spotted; biotinylated peptide 10 ng/mL; Streptavidin-HRP, TMB
Procedure: EGF (1 microliter of a 10 nM solution in PBS was spotted a nitrocellulose membrane (obtained from Thermo Fisher Scientific) and the membrane was dried in air for about 30 minutes. The membrane was then incubated in 15 mL of blocking buffer (3 wt. % BSA in PBS) for one hour at room temperature. The membrane was washed three times (15 minutes for each wash) with 15 mL portions of fresh PBST. The washed membrane was incubated with Biotinylated SEQ ID NO: 1 [10 mL of a 10 ng/mL solution in blocking buffer (3 wt. % BSA in PBS)] with gentle agitation for one hour. The membrane was again washed three times (15 minutes for each wash) with 15 mL portions of fresh PBST. The washed membrane was incubated with Streptavidin-HRP [1:5000 dilution in 10 mL of the blocking buffer (3 wt. % BSA in PBS)] for 30 minutes with gentle agitation. Following the incubation, the membrane was washed three times (15 minutes for each wash) with 15 mL portions of fresh PBST. The washed membrane was incubated with 10 mL of the development solution for horseradish peroxidase (TMB-Blotting Substrate Solution, Pierce-Fisher Scientific) with gentle agitation. The color development was stopped by adding water.

T1 sequence (P01133 971-1023 limits assumed): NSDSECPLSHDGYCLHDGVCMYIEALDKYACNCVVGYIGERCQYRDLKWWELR

Row | Substance | Kd (EGF [1]) [nM] | Dot blot colour development at EGF application site (affinity for EGF) (EGF [2])
1 | Ac-YVSPGMKNVNWWSHWWHATD-NH2 [SEQ ID NO: 1] | 700 | –
2 | Biotinylated SEQ ID NO: 1: Biotinylated version of peptide SEQ ID NO: 1, obtained from GenScript (YVSPGMKNVNWWSHWWHATD; also: biotinylated, place not given here) | – | A dark spot developed
